Test results taken from patent US11110158B2, “Prostate-associated antigens and vaccine-based immunotherapy regimens” (Pfizer Inc., priority 2012, dated 2021).
“And” between values parts separate entries of the source, which are not always exact repeats. Equal values may be shown once.

System: human PSMA
Experiment: IFNγ ELISPOT of PBMCs, PSMA vaccine with or without anti-CTLA-4 in Indian rhesus macaques, human PSMA recall antigens
Assay type: in vivo, rhesus macaque
From the text: Three groups of male Indian rhesus macaques, five to six (#1 to 5 or 6) per each test group, were immunized with a nucleic acid (SEQ ID NO: 10) that encodes a human PSMA modified antigen (SEQ ID NO: 9) delivered by adenovirus (1e11 V.P. injected intramuscularly) followed by 2 DNA immunizations (8 actuations/immunization, 4 actuations per each right and left side of the lower abdomen) by PMED with 6 and 9 week intervals respectively. Animals in Groups 2 and 3 additionally received bilateral intradermal injections of 3 mg of CpG (PF-03512676) subsequently after the PMED immunization in proximity to each inguinal draining lymph node. Group 2 also received intravenous injections of anti-CTLA-4 monoclonal antibody (CP-675, 206) at 10 mg/kg and group 3 received intradermal injections of anti-CTLA-4 monoclonal antibody (CP-675, 206) at 5 mg/kg in proximity to each left and right inguinal vaccine draining lymph node at the time of the second PMED immunization.
Peripheral blood samples were collected from each animal sixteen days after the last PMED immunization. Peripheral blood mononuclear cells (PBMCs) were isolated from the samples and were subjected to an IFNγ ELISPOT assay to measure the PSMA specific T cell responses. Briefly, 4e5 PBMCs from individual animals were plated per well with pools of PSMA specific peptides each at 2 ug/ml hPSMA ECD protein at 10 ug/ml, rhesus PSMA ECD protein at 10 ug/ml or nonspecific control peptides (human HER2 peptide pool) each at 2 ug/ml in IFNγ ELISPOT plates. The plates were incubated for 16 hrs at 37° C. and 5% CO2 and washed and developed after incubation as per manufacturer's instruction. The number of IFNγ spot forming cells (SFC) were counted by CTL reader. Each condition was performed in duplicates.
A capture antibody specific to IFNγ([…]BD Bioscience, #51-2525kc) is coated onto a polyvinylidene fluoride (PVDF) membrane in a microplate overnight at 4° C. The plate is blocked with serum/protein to prevent nonspecific binding to the antibody. After blocking, effector cells (such as splenocytes isolated from immunized mice or PBMCs isolated from rhesus macaques) and targets (such as PSMA peptides from peptide library, target cells pulsed with antigen specific peptides or tumor cells expressing the relevant antigens) are added to the wells and incubated overnight at 37° C. in a 5% CO2 incubator. Cytokine secreted by effector cells are captured by the coating antibody on the surface of the PVDF membrane. After removing the cells and culture media, 100 μl of a biotinylated polyclonal anti-humanIFNγ antibody was added to each of the wells for detection. The spots are visualized by adding streptavidin-horseradish peroxidase and the precipitate substrate, 3-amino-9-ethylcarbazole (AEC), to yield a red color spot as per manufacturer's (Mabtech) protocol. Each spot represents a single cytokine producing T cell.

[1] = Group 2, vaccine + CpG 3 mg intradermal + aCTLA4 10 mg/kg intravenous (IV), rhesus PBMCs, normalized to 1e6 PBMCs, one cell per animal, 10 mg/kg
[2] = Group 3, vaccine + CpG 3 mg intradermal + aCTLA4 5 mg/kg intradermal (ID) near each inguinal node, rhesus PBMCs, normalized to 1e6 PBMCs, ^ too numerous to count, 5 mg/kg

Tremelimumab: fully human IgG2 anti-CTLA-4 monoclonal antibody, CAS 745013-59-6, SEQ ID NOs:42 and 43
PSMA specific IFNγ SFC, recall antigen H1 [1]: 71.3 SFC and 2.5 SFC and 1063.8 SFC and 147.5 SFC and 402.5 SFC
PSMA specific IFNγ SFC, recall antigen H2 [1]: 292.5 SFC and 108.8 SFC and 82.5 SFC and 983.8 SFC and 573.8 SFC
PSMA specific IFNγ SFC, recall antigen P1 [1]: 23.8 SFC and 0.0 SFC and 58.8 SFC and 25.0 SFC and 15.0 SFC
PSMA specific IFNγ SFC, recall antigen P2 [1]: 57.5 SFC and 61.3 SFC and 41.3 SFC and 318.8 SFC and 312.5 SFC
PSMA specific IFNγ SFC, recall antigen P3 [1]: 1.3 SFC and 0.0 SFC and 7.5 SFC and 27.5 SFC and 5.0 SFC
PSMA specific IFNγ SFC, recall antigen hPSMA protein [1]: 278.8 SFC and 78.8 SFC and 1197.5 SFC and 1046.3 SFC and 707.5 SFC
PSMA specific IFNγ SFC, recall antigen H2 [2]: ≥ 1236.3^ SFC and ≥ 1247.5^ SFC and ≥ 1248.8^ SFC and 1173.8 SFC
PSMA specific IFNγ SFC, recall antigen hPSMA protein [2]: ≥ 1236.8^ SFC and ≥ 1247.5^ SFC and ≥ 1248.8^ SFC and ≥ 1242.5^ SFC
IFNγ T cell responses to PSMA specific peptides and proteins (group 2: vaccine + CpG (PF-03512676) + systemic (intravenous) anti-CTLA-4 10 mg/kg, versus vaccine alone): modestly enhanced
IFNγ T cell responses to PSMA specific peptides and proteins (group 3: vaccine + CpG + anti-CTLA-4 delivered locally by intradermal injections near the vaccine draining lymph node): more potent and significant enhancement of the response
